Results from a melting point compilation (Tetko et al.; mined from patent text by program, amines drawn as free bases though some values may be those of a salt).

| melting point | SMILES |
| --- | --- |
| 138 to 140 °C | CCCN(c1ccc(O)c(Cl)c1)S(=O)(=O)c1ccc(O)cc1 |
| 81 °C | O=C(O)Cc1ccc(OCCNC(=O)C2Cc3ccccc3N2S(=O)(=O)c2ccc(-c3ccc(F)cc3)cc2)cc1 (centres undefined) |
| 167 to 168 °C | CC(C)(C)c1ccc(Cn2ccc3cc(-c4ccc(C(C)(C)C)cc4)ccc32)cc1 |
| 98 to 101 °C | O=C(NCCOc1ccc(CC(Oc2ccc(-c3ccccn3)cc2)C(=O)O)cc1)c1ccc(-c2ccccn2)cc1 (centres undefined) |
| 119 to 120 °C | N#CCCC(CCC(=O)O)(c1ccccc1)c1ccccc1 |
| 115 to 120 °C | O=C(O)c1cc(Cl)c(Cl)c(Cl)n1 |
| 243 to 246 °C | COc1ccc2nc3c([N+](=O)[O-])ccc(Cl)c3c(Cl)c2c1 |
| 161 to 162 °C | COc1cc(N)c(Cl)cc1C(=O)NCC1CNCCO1 (centres undefined) |
| 175 °C | CN1CCC=C(c2cccc3[nH]ccc23)C1 |
| 128 to 130 °C | O=C(COc1ccc([N+](=O)[O-])c(F)c1)NCc1ccccc1 |
| 112 °C | CC(C)(CO)NS(=O)(=O)c1cncc(Br)c1 |
| 164 to 166 °C | COCC1CN(c2ccc(C3CCN(C(=O)c4ccc(C(F)(F)F)cc4)CC3)cc2)C(=O)O1 (racemic) |
| 132 to 135 °C | NS(=O)(=O)c1ccccc1-c1ccno1 |
| 172 to 173 °C | Cc1nc(N2CCN(Cc3ccc(OC(F)(F)F)cc3)C2=O)sc1C(=O)NCCc1cccnc1 |
| 127 to 128 °C | O=C(C[C@@H](c1cc(F)cc(F)c1)C(F)(F)F)N1C(=O)OC[C@@H]1Cc1ccccc1 |
| 111 to 112 °C | C=CCC1(C(=O)NCC)c2ccccc2Oc2ccccc21 |
| 132 to 133 °C | CC(=O)NC1CCCCC1Sc1ccccc1 (centres undefined) |
| 138 to 140 °C | COc1ccnc(CCc2nc3cc(-c4ccc(S(=O)(=O)N5CCN(C(C)=O)CC5)cc4)cnc3[nH]2)c1 |
| 151 to 153 °C | COc1cc2cccc(OC)c2cc1C(=O)O |
| 204 to 206 °C | O=C1NCCc2cc(O)ccc21 |
| 63 to 66 °C | C[C@H]1CCCC(C)(C)[C@@H]1[C@H](O)c1ccc(C(F)(F)F)cc1 |
| 76 to 78 °C | CC(=O)c1ccc(SCCCc2ccccc2)cc1 |
| 133 °C | O=C(NC1CCCC1)c1ccc(F)c2c1CC(N(CCCc1c[nH]c3ccc(F)cc13)C1CCC1)CO2 (centres undefined) |
| 173 to 174 °C | CNC(=O)N(C)C1c2ccccc2Oc2ccccc21 |

| melting point | SMILES |
| --- | --- |
| 294 to 297 °C | CCCn1cc2c(C3C(=O)Nc4ccc(Br)cc43)nc(NCCc3cccnc3)nc2n1 (centres undefined) |
| 328 to 330 °C | Nc1nc(N)c2c(ccc3c2ccn3-c2ccncc2)n1 |
| 128 °C | CC(C)(C)c1cccc(S(=O)(=O)n2c(Cc3ccc(C(=O)O)cc3)cc3cc(C(F)(F)F)ccc32)c1 |
| 105 °C | CCOC(=O)OC1=C(c2c(C)cc(C)cc2C)C(=O)N(N(C)C)C12CCN(N(C)C)CC2 |
| 201 to 203 °C | C#Cc1cc(Nc2ncnc3cnc(NCc4ccc(OC)cc4)cc23)ccc1Cl |
| 196 to 197 °C | CCOP(=O)(CNC(=O)OC(c1ccccc1)c1cc(C(C)(C)C)c(O)c(C(C)(C)C)c1)OCC (centres undefined) |
| 90 to 92 °C | COC(=O)CCCCCCC1C(=O)CCN1C(=O)c1ccc(-c2ccccc2)cc1 (centres undefined) |
| 110 to 112 °C | CCCCNC(=O)Oc1c(C)cc(Oc2ccc(C)cc2)cc1C |
| 138 to 140 °C | CCOC(=O)c1cc(S(=O)C(F)(F)C(F)F)c(-c2ccc(Cl)cc2)[nH]1 (centres undefined) |
| 114 to 118 °C | CCN(CC)C(=O)Nc1ccc(S(=O)(=O)N2C(=O)C(NCCOCCO)(c3ccccc3Cl)c3cc(Cl)ccc32)cc1 (centres undefined) |
| 142 °C | CC(n1ccnc1)C1(c2ccc(Cl)cc2Cl)SCCS1 (centres undefined) |
| 120 °C | N#Cc1ccccc1N1CCN(CCCCCC(=O)O)CC1 |
| 198 to 200 °C | COC(=O)c1cc(S(N)(=O)=O)c(Br)cc1C |
| > 300 °C | Nc1nc(-c2cccc(F)c2)nc2nc(-c3ccco3)nn12 |
| 208 to 210 °C | O=C(c1ccc(O)cc1)c1ccc(O)c(Cl)c1Cl |
| 126 to 130 °C | CC(C)CC[C@H](O)[C@H](CC1CCCCC1)NC(=O)[C@@H](N)Cc1c[nH]cn1 |
| 58 to 60 °C | O=C=NC(=O)CS(=O)(=O)c1ccc(Cl)cc1 |
| 225 to 227 °C | Cc1cccnc1-c1cc2cccnc2c(=O)[nH]1 |
| 142 to 144 °C | COC1=CC(Cl)(OC)NC(C(=O)CC(=O)Nc2ccccc2)=N1 (centres undefined) |
| 240 to 244 °C | Cc1c[nH]c2c(=O)n(CC(=O)NC3CC(=O)OC3OCc3ccccc3)cnc12 (centres undefined) |
| 187 to 188 °C | Cc1cc(C)c2c(c1)c1c(n2Cc2ccc(Cl)cc2)C(CC(=O)O)CCC1 (centres undefined) |
| > 250 °C | c1ccc(Cc2cnc(N3CCN(c4ncnc5ccccc45)CC3)nc2)cc1 |
| 190 to 193 °C | CCCc1cc(-c2nc(-c3ccc(C)cc3)cs2)ccn1 |
| 271 to 273 °C | COc1cc(C(=O)NS(=O)(=O)c2ccccc2C)ccc1Cn1cc(/C=C/C(=O)N(C)C)c2ccc(/C=C/C(=O)N(C)C)cc21 |

| melting point | SMILES |
| --- | --- |
| 184 °C | CCN1CCC(C(=O)O)(S(=O)(=O)c2ccc(Oc3ccc(Cl)cc3)cc2)CC1 |
| 65 to 66 °C | FC(F)(F)Oc1ccc2nc(COc3ccccc3)[nH]c2c1 |
| 176 to 177 °C | COC(=O)c1cc2ccc(O)cc2o1 |
| 63 to 65 °C | COc1ccc(C(=O)N[C@@H](Cc2c[nH]c3ccccc23)C(=O)O)cc1 |
| 216 to 217 °C | O=C(O)CSc1ccc([N+](=O)[O-])cc1C(=O)O |
| 74 to 75 °C | Cc1ccc(-c2nc(OC(C)C)c(Br)c(OC(C)C)n2)cc1 |
| 104 to 106 °C | O=c1[nH]c2ccccc2n1CCN1CCC(C(c2ccc(F)cc2)c2ccc(F)cc2)CC1 |
| 148 to 152 °C | Cc1cc(N)nc(C)c1-c1ccc(Cl)cc1 |
| 138 to 139 °C | CCOC(=O)CCc1c(-c2ccccc2)c2cc(C)c(C)cc2c(=O)n1C |
| 220 to 221 °C | O=C1NCc2cnc(Nc3ccc(N4CCCCC4CO)cc3)nc2N1C1CCCC1 (centres undefined) |
| 152 to 160 °C | Cc1cc2c(c(C(C)(C)C)c1)OC(=O)C2O (centres undefined) |
| 163 °C | Cc1nnc(-c2ccccc2)n1-c1ccccc1 |
| 173 to 175 °C | Cc1cccc(C(=O)c2ccc(OCC(=O)O)c(Cl)c2Cl)c1 |
| 171 to 173 °C | CC(=O)c1ccc(C(C)=O)s1 |
| 49 to 49.5 °C | CSCCCC(=O)C(=C1NCCCS1)[N+](=O)[O-] |
| 125 °C | CCC(C)N(C)C(=O)c1cc(-c2ccccc2)cc2ccccc12 (centres undefined) |
| 105 to 106 °C | COC(=O)c1ccnc(NC(=O)C(C)CSC(C)=O)c1 (centres undefined) |
| 76 °C | O=C1c2ccccc2C(OCC2CO2)N1c1ccccc1 (centres undefined) |
| 168 °C | Cc1cc(Cl)ccc1OCC(=O)N1Cc2ccc(C(=O)NCc3cccnc3)n2Cc2ccccc21 |
| 134 °C | CCSCC1=C(O)CC(C)(C)CC1=O |
| 133 to 134 °C | O=C(O)c1ccccc1Oc1ccc(C(F)(F)F)cc1NS(=O)(=O)c1cc(C(F)(F)F)cc(C(F)(F)F)c1 |
| 198 to 200 °C | COc1ccccc1Sc1ccccc1C(=O)O |
| 119 °C | Ic1nnnn1C1CCCC1 |
| 246 to 247 °C | O=C(Cc1c(-c2ccccc2)c2cc(O)c(Cl)cc2oc1=O)Nc1ccc(Cl)cc1C(F)(F)F |

| melting point | SMILES |
| --- | --- |
| 146 to 147 °C | N#Cc1cc(-c2ccccc2)[nH]c1Sc1ccc(N)cc1 |
| 46 to 50 °C | CN1CCCC1CCOc1ccc(-c2nnc(CSCCOc3ccccc3)o2)cc1 (centres undefined) |
| > 250 °C | COc1cc2c(cc1C#Cc1ccccc1)NC(=O)CC(c1cccc(C#N)c1)=N2 |
| 180 °C | O=C(NC1CC2C=CC1C2)n1cc(F)c(=O)[nH]c1=O (centres undefined) |
| 169 to 170 °C | COc1ccccc1-n1c(-c2sc(Nc3ccccc3)nc2C)nc2ccccc2c1=O |
| 146 °C | CC(C)Cn1nc(-c2ccc(C(F)(F)F)cc2)cc(CO)c1=O |
| 33.5 to 35.5 °C | COC1=C(OC)C(=O)C(CCCCCC[C@H]2CC[C@H](O)CC2)=C(C)C1=O |
| 182 to 183 °C | COc1ccc(C(=O)N2CCCC3=C2CCc2cc(Cl)ccc23)cc1 |
| 186 to 188 °C | CCC(=O)Nc1c(Sc2cc(C)cc(C)c2)c(C)c[nH]c1=O |
| 87 to 92 °C | O=C1CSCN1c1cc(Cl)cc(Cl)c1 |
| 148 to 150 °C | Cn1nc(C#N)c(Nc2cc(Cl)c(Cl)cc2[N+](=O)[O-])n1 |
| 119 to 120 °C | CSc1ncc(C(=O)N(C)Cc2cc(C(F)(F)F)cc(C(F)(F)F)c2)c(-c2ccccc2)n1 |
| 180 °C | Cc1ccc(S(=O)(=O)c2ncccc2NC(=O)N[C@@H](Cc2ccc(NC(=O)c3c(Cl)cccc3Cl)cc2)C(=O)O)cc1 |
| 124 °C | O=C(OC1COC(n2cc(CCN3C(=O)c4ccccc4C3=O)c(=O)[nH]c2=O)C(OC(=O)c2ccccc2)C1OC(=O)c1ccccc1)c1ccccc1 (centres undefined) |
| 126 °C | CC(C)(C)NC(=O)[C@@H]1C[C@@H]2CCCC[C@@H]2CN1C[C@@H](O)[C@H](Cc1ccccc1)NC(=O)[C@@H](Nc1nc(CO)cs1)C(C)(C)S(C)(=O)=O |
| 88 to 90 °C | O=C(CCc1ccc(Cl)cc1)N1CCC(CCO)CC1 |
| 193 to 195 °C | O=c1[nH]ncc(Cl)c1-c1ccccc1 |
| 200 to 202 °C | CC(=O)N1CCC(C)(C)c2cc(/C(C)=C/c3ccc(C(=O)O)cc3)ccc21 |
| 170 to 172 °C | Cc1ccc(C(=O)NC(NC(=S)Nc2cccc([N+](=O)[O-])c2)c2ccccc2)cc1 (centres undefined) |
| 173 to 174 °C | CC1(C)CCOc2cc(C(=O)O)ccc21 |
| 114 to 116 °C | OCC1CN(C(c2ccccc2)c2ccccc2)C1 |
| 198 °C | COCCc1nc2c(N)nc3ccccc3c2n1CCCNC(=O)c1cc2ccccc2cn1 |
| 168 °C | CC(C)(C)OC(=O)N[C@@H](Cc1ccccc1)C(=O)NCCCN1CCN(CCCNc2cccc3c2C(=O)c2ccccc2C3=O)CC1 |

| SMILES | melting point |
| --- | --- |
| CN1C(=O)C(NC(=O)NC(C)(C)C)N=C(c2ccccc2)c2ccccc21 (centres undefined) | 281 to 282 °C |
| CCCOC1CCC2C3CCC4=CC(=O)CCC4C3CCC12CC (centres undefined) | 83 to 84 °C |
| CN1CCC(c2n[nH]c3ccccc23)CC1 | 168 to 170 °C |
| CN1COCN(Cc2ccc(Cl)nc2)C1=N[N+](=O)[O-] | 116 to 118 °C |
